From PubChem BioAssay AID1963865 (Molecular Pharmacology Branch, DTP, NCI, 2024)

Test system: KRAS PDC multicell spheroid viability
Assay: Anticancer human tumor 825966-067-R-J1-PDC patient-derived colon carcinoma cell line growth inhibition [KRAS2]
Conditions: for IC50: curve of first compound; for viability, T/C: stronger effect = lower value
Procedure, shortened: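 Combination screen of spheroid viability in tumor-cell co-cultures with endothelial (HUVEC) and mesenchymal stem cell stroma. Each agent was tested in half-log dilutions, topping at clinical Cmax or at 10 microM without a known Cmax.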

[1] = second compound 0.1 µM, first compound 0.0316 µM
[2] = second compound 0.1 µM, first compound 0.1 µM
[3] = second compound 0.1 µM, first compound 0.316 µM
[4] = second compound 0.1 µM, first compound 1 µM
[5] = second compound 0.1 µM, first compound 3.16 µM
[6] = second compound 0.1 µM, first compound 10 µM
[7] = second compound 0.316 µM, first compound 0.0316 µM
[8] = second compound 0.316 µM, first compound 0.1 µM
[9] = second compound 0.316 µM, first compound 0.316 µM
[10] = second compound 0.316 µM, first compound 1 µM
[11] = second compound 0.316 µM, first compound 3.16 µM
[12] = second compound 0.316 µM, first compound 10 µM
[13] = second compound 1 µM, first compound 0.0316 µM
[14] = second compound 1 µM, first compound 0.1 µM
[15] = second compound 1 µM, first compound 0.316 µM
[16] = second compound 1 µM, first compound 1 µM
[17] = second compound 1 µM, first compound 3.16 µM
[18] = second compound 1 µM, first compound 10 µM
[19] = second compound 3.16 µM, first compound 0.0316 µM
[20] = second compound 3.16 µM, first compound 0.1 µM
[21] = second compound 3.16 µM, first compound 0.316 µM
[22] = second compound 3.16 µM, first compound 1 µM
[23] = second compound 3.16 µM, first compound 3.16 µM
[24] = second compound 3.16 µM, first compound 10 µM
[25] = second compound 10 µM, first compound 0.0316 µM
[26] = second compound 10 µM, first compound 0.1 µM
[27] = second compound 10 µM, first compound 0.316 µM
[28] = second compound 10 µM, first compound 1 µM
[29] = second compound 10 µM, first compound 3.16 µM
[30] = second compound 10 µM, first compound 10 µM
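Note: spheroids exposed to compounds for 7 days.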
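Throughout, for viability, T/C: 100% = DMSO vehicle control viability.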

Row | Structure (SMILES) | IC50 (second compound 0.1 µM) | IC50 (second compound 0.316 µM) | IC50 (second compound 1 µM) | IC50 (second compound 3.16 µM) | IC50 (second compound 10 µM) | viability, T/C [1] | viability, T/C [2] | viability, T/C [3] | viability, T/C [4] | viability, T/C [5] | viability, T/C [6] | viability, T/C [7] | viability, T/C [8] | viability, T/C [9] | viability, T/C [10] | viability, T/C [11] | viability, T/C [12] | viability, T/C [13] | viability, T/C [14] | viability, T/C [15] | further results
1 | CC1(C)CCC(CN2CCN(c3ccc(C(=O)NS(=O)(=O)c4ccc(NCC5CCOCC5)c([N+](=O)[O-])c4)c(Oc4cnc5[nH]ccc5c4)c3)CC2)=C(c2ccc(Cl)cc2)C1 + CNCc1ccccc1-c1csc(C(C)Nc2nc(C)nc3cc(OC)c(OC)cc23)c1 | 2180 nM | 2190 nM | 2050 nM | 1550 nM | < 31.6 nM | 91.4% | 106% | 97.5% | 92.9% | 29.4% | 4.56% | 94.7% | 101% | 95.2% | 104% | 27.4% | 2.36% | 88.5% | 96.7% | 126% | viability, T/C [16]: 132%; viability, T/C [17]: 13.6%; viability, T/C [18]: 2.22%; viability, T/C [19]: 45.1%; viability, T/C [20]: 98.6%; viability, T/C [21]: 64.8%; viability, T/C [22]: 102%; viability, T/C [23]: 5.49%; viability, T/C [24]: 0.23%; viability, T/C [25]: 0.25%; viability, T/C [26]: 0.32%; viability, T/C [27]: 1.83%; viability, T/C [28]: 0.35%; viability, T/C [29]: 0.66%; viability, T/C [30]: 0.23%
2 | CC(C)NCC(C(=O)N1CCN(c2ncnc3c2C(C)CC3O)CC1)c1ccc(Cl)cc1 (stereo not given) + CNCc1ccccc1-c1csc(C(C)Nc2nc(C)nc3cc(OC)c(OC)cc23)c1 | 1880 nM | 1780 nM | 787 nM | 32.2 nM | < 31.6 nM | 84.8% | 84.4% | 89.6% | 85.3% | 20.8% | 7.87% | 79% | 110% | 119% | 69.9% | 29.2% | 6.85% | 81.6% | 84.8% | 97.9% | viability, T/C [16]: 40%; viability, T/C [17]: 14.8%; viability, T/C [18]: 3.31%; viability, T/C [19]: 50.6%; viability, T/C [20]: 21.1%; viability, T/C [21]: 1.24%; viability, T/C [22]: 0.74%; viability, T/C [23]: 0.68%; viability, T/C [24]: 1.98%; viability, T/C [25]: 1.91%; viability, T/C [26]: 1.5%; viability, T/C [27]: 0.93%; viability, T/C [28]: 0.3%; viability, T/C [29]: 0.36%; viability, T/C [30]: 0.91%
3 | CC1(C)CCC(CN2CCN(c3ccc(C(=O)NS(=O)(=O)c4ccc(NCC5CCOCC5)c([N+](=O)[O-])c4)c(Oc4cnc5[nH]ccc5c4)c3)CC2)=C(c2ccc(Cl)cc2)C1 + CC1OCC2(CCN(c3cnc(Sc4ccnc(N)c4Cl)c(N)n3)CC2)C1N | 2220 nM | 2230 nM | 2140 nM | 2360 nM | 1970 nM | 103% | 88.4% | 116% | 114% | 25.6% | 11.1% | 102% | 104% | 119% | 96.9% | 29.6% | 3.21% | 99% | 110% | 119% | viability, T/C [16]: 110%; viability, T/C [17]: 19.3%; viability, T/C [18]: 4.73%; viability, T/C [19]: 122%; viability, T/C [20]: 126%; viability, T/C [21]: 111%; viability, T/C [22]: 119%; viability, T/C [23]: 26.6%; viability, T/C [24]: 4.06%; viability, T/C [25]: 69%; viability, T/C [26]: 78.2%; viability, T/C [27]: 131%; viability, T/C [28]: 141%; viability, T/C [29]: 11.5%; viability, T/C [30]: 2%
4 | O=C(c1cc(Cc2n[nH]c(=O)c3ccccc23)ccc1F)N1CCN(C(=O)C2CC2)CC1 + C=CC(=O)N1CCN(c2nc(=O)n(-c3c(C)ccnc3C(C)C)c3nc(-c4c(O)cccc4F)c(F)cc23)C(C)C1 | > 10000 nM | > 10000 nM | > 10000 nM | > 10000 nM | > 10000 nM | 97.5% | 89.9% | 107% | 71.9% | 71.1% | 77.9% | 90.2% | 96.8% | 77.2% | 81.9% | 65.7% | 80.9% | 100% | 84.3% | 77.8% | viability, T/C [16]: 62.8%; viability, T/C [17]: 70.8%; viability, T/C [18]: 88.1%; viability, T/C [19]: 68.3%; viability, T/C [20]: 90.3%; viability, T/C [21]: 78.4%; viability, T/C [22]: 75.8%; viability, T/C [23]: 73.3%; viability, T/C [24]: 70.4%; viability, T/C [25]: 96.4%; viability, T/C [26]: 82.3%; viability, T/C [27]: 90.8%; viability, T/C [28]: 72%; viability, T/C [29]: 66.5%; viability, T/C [30]: 91.7%
